Measured values published in US20240059691A1 (KALVISTA PHARMACEUTICALS LIMITED, priority 2020, published 2024).

Key:
Assay type in all cases: biochemical
[1] = target: Human Factor XIIa (Homo sapiens (Human), UniProt P00748); assay: Determination of FXIIa inhibition (fluorogenic substrate H-DPro-Phe-Arg-AFC, IC50 assay); conditions: substrate H-DPro-Phe-Arg-AFC at Km, 25° C.; class scale A-G
Summary of the method: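 IC50 derived from % remaining activity, taken as the linear fluorescence rate over a 5 min read at 25° C. Substrate H-DPro-Phe-Arg-AFC was used at its Km (Michaelis-Menten) with human FXIIa and serial compound dilutions, 25° C.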

[2] = target: Plasma Kallikrein (Homo sapiens (Human), UniProt P03952); assay: Determination of related protease inhibition: Plasma Kallikrein (fluorogenic substrate at Km); conditions: 25° C., read-out: IC50 (human PKal)
Summary of the method: (§1)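 Fluorogenic kinetic assay: human enzyme, substrate at Km, titrated inhibitor; 5 min read at 25 °C; IC50 from % of uninhibited rate.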

[3] = target: KLK1 (Homo sapiens (Human), UniProt P06870); assay: Determination of related protease inhibition: KLK1 (fluorogenic substrate at Km); conditions: 25° C.
Summary of the method: as §1

[4] = target: FXa (Homo sapiens (Human), UniProt P00742); assay: Determination of related protease inhibition: FXa (fluorogenic substrate at Km); conditions: 25° C.
Summary of the method: as §1

[5] = target: Thrombin (Homo sapiens (Human), UniProt P00734); assay: Determination of related protease inhibition: Thrombin (fluorogenic substrate at Km); conditions: 25° C.
Protocol: Determination of Related Protease Inhibition
In vitro inhibition of related proteases was determined using an ([…] assay based on standard literature methods (see e.g. Shori et al., Biochem. Pharmacol., 1992, 43, 1209; Bouckaert et al., European Journal of Medicinal Chemistry 110 (2016) 181). Human serine protease enzymes Plasma Kallikrein, KLK1, FXa, Plasmin, Thrombin and Trypsin were assayed for enzymatic activity using an appropriate fluorogenic substrate at Km concentration, FXIa at fixed substrate concentration of 100 μM, and various concentrations of the test compound. Protease activity was measured by monitoring the accumulation of liberated fluorescence from the substrate over […]. The linear rate of fluorescence increase per minute was expressed as percentage (%) activity. IC50 values were calculated as the concentration of inhibitor giving 50% inhibition of the uninhibited enzyme activity (100%).

Chain of Plasma Kallikrein (P03952 391-638): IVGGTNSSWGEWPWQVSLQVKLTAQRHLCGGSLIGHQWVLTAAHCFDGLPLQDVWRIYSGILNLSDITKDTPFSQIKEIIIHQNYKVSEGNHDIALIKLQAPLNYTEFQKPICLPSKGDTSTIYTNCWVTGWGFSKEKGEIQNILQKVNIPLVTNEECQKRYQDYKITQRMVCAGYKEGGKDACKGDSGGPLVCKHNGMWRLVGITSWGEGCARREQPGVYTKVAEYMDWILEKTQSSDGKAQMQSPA
Chain of Plasma Kallikrein (P03952 20-390 partner): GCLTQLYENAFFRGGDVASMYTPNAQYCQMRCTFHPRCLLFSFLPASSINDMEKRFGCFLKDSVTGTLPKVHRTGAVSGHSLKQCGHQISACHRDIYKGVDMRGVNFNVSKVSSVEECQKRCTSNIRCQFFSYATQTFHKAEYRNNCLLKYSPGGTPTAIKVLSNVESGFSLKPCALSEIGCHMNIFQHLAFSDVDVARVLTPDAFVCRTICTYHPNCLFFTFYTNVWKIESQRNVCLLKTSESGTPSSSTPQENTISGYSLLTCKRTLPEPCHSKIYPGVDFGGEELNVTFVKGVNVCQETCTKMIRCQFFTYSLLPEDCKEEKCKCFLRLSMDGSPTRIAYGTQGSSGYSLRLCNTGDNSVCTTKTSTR
Chain of FXa (P00742 235-488): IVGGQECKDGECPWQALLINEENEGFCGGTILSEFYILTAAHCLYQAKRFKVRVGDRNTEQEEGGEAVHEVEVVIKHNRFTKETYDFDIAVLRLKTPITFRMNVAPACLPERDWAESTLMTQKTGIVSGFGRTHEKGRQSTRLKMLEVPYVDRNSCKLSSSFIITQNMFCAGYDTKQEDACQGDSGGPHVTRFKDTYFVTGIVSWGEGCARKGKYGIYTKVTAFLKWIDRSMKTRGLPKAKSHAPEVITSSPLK
Chain of FXa (P00742 41-179 partner): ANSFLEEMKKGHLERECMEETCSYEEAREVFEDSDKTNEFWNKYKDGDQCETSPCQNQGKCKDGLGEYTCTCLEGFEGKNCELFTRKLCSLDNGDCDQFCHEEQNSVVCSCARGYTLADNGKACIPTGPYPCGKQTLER
Chain of Human Factor XIIa (P00748 373-615): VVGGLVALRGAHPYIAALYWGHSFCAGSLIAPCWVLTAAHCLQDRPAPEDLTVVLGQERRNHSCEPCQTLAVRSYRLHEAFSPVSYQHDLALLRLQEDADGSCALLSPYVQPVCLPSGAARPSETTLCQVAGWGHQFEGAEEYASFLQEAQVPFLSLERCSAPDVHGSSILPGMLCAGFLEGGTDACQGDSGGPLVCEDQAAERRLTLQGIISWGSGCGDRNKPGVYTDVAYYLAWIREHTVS
Chain of KLK1 (P06870 25-262): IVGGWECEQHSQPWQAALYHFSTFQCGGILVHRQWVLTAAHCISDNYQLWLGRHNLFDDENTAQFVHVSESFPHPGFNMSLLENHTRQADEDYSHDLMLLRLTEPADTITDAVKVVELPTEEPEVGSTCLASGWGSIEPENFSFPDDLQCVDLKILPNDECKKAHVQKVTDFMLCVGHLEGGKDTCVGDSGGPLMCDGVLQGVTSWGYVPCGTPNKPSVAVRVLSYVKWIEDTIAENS

Row | IC50 [1] | IC50 [2] | IC50 [3] | IC50 [4] | IC50 [5] | SMILES
1 | 10 to 40 µM | > 40 µM | 10 to 40 µM | > 40 µM | > 40 µM | CC(C)N1C[C@H]2C[C@@H]1CN2Cc1cc(CNc2cccc3c(N)nccc23)ccn1 [Example 4294, 5-N-[(2-{[(1R,4R)-5-isopropyl-2,5-diazabicyclo[2.2.1]heptan-2-yl]methyl}pyridin-4-yl)methyl]isoquinoline-1,5-diamine]
2 | 10 to 40 µM | > 40 µM | 10 to 40 µM | > 40 µM | > 40 µM | Nc1nccc2c(NCc3ccc(CN4CCOCC4)cc3F)cccc12 [Example 1034, 5-N-{[2-fluoro-4-(morpholin-4-ylmethyl)phenyl]methyl}isoquinoline-1,5-diamine]
3 | 1 to 3 µM | > 20 µM | 3 to 10 µM | > 100 µM | > 4 µM | Cc1cc(NCc2ccnc(OCC3CCN(C)CC3)c2)cc2ccncc12 [Example 4464, 8-methyl-N-((2-((1-methylpiperidin-4-yl)methoxy)pyridin-4-yl)methyl)isoquinolin-6-amine]
4 | 0.01 to 0.1 µM | 1 to 3 µM | 0.3 to 1 µM | 3 to 10 µM | 3 to 10 µM | CN1CCC(CNc2ccc(CNc3ccc4c(N)nccc4c3)cn2)CC1 [Example 1033, N6-((6-(((1-methylpiperidin-4-yl)methyl)amino)pyridin-3-yl)methyl)isoquinoline-1,6-diamine]
5 | 1 to 3 µM | 10 to 40 µM | 1 to 3 µM | 0.3 to 1 µM | 0.3 to 1 µM | CC(=O)N1CC2CC1CC2COc1cc(CNc2ccc3c(N)nccc3c2)ccn1 (stereo not shown) [Example 4275, 1-(5-(((4-(((1-aminoisoquinolin-6-yl)amino)methyl)pyridin-2-yl)oxy)methyl)-2-azabicyclo[2.2.1]heptan-2-yl)ethan-1-one]
6 | 3 to 10 µM | > 40 µM | > 40 µM | > 40 µM | > 40 µM | CN1CCC(CNc2ccc(CNc3ccc4cnccc4c3Cl)cn2)CC1 [Example 1209, 5-chloro-N-((6-(((1-methylpiperidin-4-yl)methyl)amino)pyridin-3-yl)methyl)isoquinolin-6-amine]
7 | 3 to 10 µM | > 40 µM | 10 to 40 µM | 10 to 40 µM | 10 to 40 µM | CN1CCC(CNc2ccc(CNc3ccnc(N)c3)cn2)CC1 [Example 1096, N4-((6-(((1-methylpiperidin-4-yl)methyl)amino)pyridin-3-yl)methyl)pyridine-2,4-diamine]
8 | 0.1 to 0.3 µM | > 40 µM | 3 to 10 µM | 3 to 10 µM | > 40 µM | Nc1nccc2cc(NCc3ccnc(-c4cccc(CN5CCCC5)c4)c3)ccc12 [Example 4434, 6-N-({2-[3-(pyrrolidin-1-ylmethyl)phenyl]pyridin-4-yl}methyl)isoquinoline-1,6-diamine]
9 | 0.1 to 0.3 µM | > 40 µM | 3 to 10 µM | > 40 µM | > 40 µM | Cc1nnc2n1CCN(c1ccc(CNc3cccc4c(N)nccc34)cn1)C2 [Example 1279, N5-((6-(3-methyl-5,6-dihydro-[1,2,4]triazolo[4,3-a]pyrazin-7(8H)-yl)pyridin-3-yl)methyl)isoquinoline-1,5-diamine]
10 | 3 to 10 µM | > 40 µM | 10 to 40 µM | > 40 µM | > 40 µM | CN1C[C@@H](COc2cc(CNc3cccc4c(N)nccc34)ccn2)OC1=O [Example 4279, (5S)-5-{[(4-{[(1-aminoisoquinolin-5-yl)amino]methyl}pyridin-2-yl)oxy]methyl}-3-methyl-1,3-oxazolidin-2-one]
11 | 0.1 to 0.3 µM | 3 to 10 µM | 3 to 10 µM | 10 to 40 µM | > 40 µM | Cc1cn2c(n1)CC(COc1cc(CNc3cccc4c(N)nccc34)ccn1)CC2 (stereo not shown) [Example 4319, N5-[[2-[(2-methyl-5,6,7,8-tetrahydroimidazo[1,2-a]pyridin-7-yl)methoxy]-4-pyridyl]methyl]isoquinoline-1,5-diamine]
